Series [1] can be described thus: Metabolic stability in human liver microsomes (HLMs). Particulars: for remaining at 2 h: human, human liver microsomes; for Metabolic Pathway: metabolites after 120 min incubation with HLMs. On the technique in general: Liver microsomes are a subcellular fraction often used to study metabolism.
In a further series the target is T1, TRPV1 (VR1) (h) (Homo sapiens, UniProt Q8NER1).
T1 construct: host or cells: CHO
Briefly: TRPV1 (VR1) (h) antagonist effect functional assay. The format is cell-based. To be noted: human recombinant CHO cells, read-out: % Inhibition of control agonist response, TRPV1 (antagonist effect). The procedure, abridged: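 Commercial Eurofins radioligand binding and functional panel: [3H]GABA agonist binding for GABAA, antagonist radioligand binding for GABA transporter, cell-based calcium flux antagonist assay for human Cav1.2. TRPV1 antagonism measured in human recombinant CHO cells at 100 µM as % inhibition of control agonist response.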

The test system of series [2] is scPTZ-induced seizures in mice. Description: Subcutaneous pentylenetetrazole (scPTZ) seizure test. The format is in vivo. To be noted: 100 mg/kg i.p., 0.5 h; for protection in scPTZ screening: four mice. In outline:
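Adult male Albino Swiss mice (22-26 g) received compounds suspended in 1% aqueous Tween 80, single i.p. injection at 10 mL/kg. ED50 from 3–4 dose groups of eight mice; protective index computed as TD50 (chimney or rotarod) divided by ED50.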

For series [3], the system named is MES-induced seizures in mice. Description: Maximal electroshock seizure (MES) test. Particulars: for protection in MES screening / responders at 100 mg/kg: 100 mg/kg i.p., 0.5 h; for protection in MES screening: four mice; for responders at 100 mg/kg / ED50: Mus musculus, ip; for responders at 100 mg/kg: read-out: MES screening: number of mice protected/number of mice tested (converted); for ED50: mice, pretreatment time 0.5 h, (95% confidence limits). The format is in vivo. The procedure, abridged: (§1)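 Adult male Albino Swiss mice (22–26 g), compounds suspended in 1% aqueous Tween 80, single i.p. injection, tested 0.5 h post-dose. Screening at 100 mg/kg with four mice per group; ED50 from 3–4 groups of eight. PI = TD50 (chimney test) / ED50.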

Series [4] has as its target T2, Calcium Cav1.2 channels (dihydropyridine site) (Homo sapiens, UniProt Q13936).
T2 construct: host or cells: HEK-293
Description: Calcium Cav1.2 channel binding (dihydropyridine site, antagonist radioligand). Particulars: 10 µM; human recombinant HEK-293 cell; read-out: % Inhibition of Control Specific Binding, Cav1.2 (dihydropyridine site).
Description: Binding/functional studies were carried out commercially in Eurofins Laboratories (Poitiers, France) and Eurofins Panlabs Discovery Services Taiwan, Ltd. (New Taipei City, Taiwan) using testing procedures that were reported previously (for details see Table S2).

In series [5] the test system is 6 Hz (44 mA) seizures in mice. Description: 6 Hz (44 mA) seizure model of drug-resistant epilepsy. The format is in vivo. To be noted: Mus musculus, ip, pretreatment time 0.5 h, (95% confidence limits). The method, then:
Adult male Albino Swiss mice that weighed between 22 and 26 g were used in the in vivo studies. They were housed under standardized housing conditions in colony cages and had free access to food as well as tap water. The animals were left to adapt under laboratory conditions for 7 days. All procedures involving animals and their care were performed in accordance with the current European Community and Polish legislation on animal experimentation.
In the initial screening studies, four mice per group were randomly assigned to each experimental group (each mouse was used only once). To evaluate the ED50 or TD50 values, 3–4 groups that consisted of eight animals were injected with various doses of tested compounds. The protective indexes (PIs) for the compounds that were investigated and reference ASDs were calculated by dividing the TD50 value, as determined in the chimney test (or rotarod test), by the respective ED50 value, as determined in the MES, scPTZ, or 6 Hz (32 mA or 44 mA) tests (PI = TD50/ED50). The PIs is a measure of the potential therapeutic window of the tested agent.
All substances were suspended in Tween 80 (1% aqueous solution) and administered i.p. as a single injection at a dose of 10 mL/kg. […]
Taking into consideration the potent protection of 53 and 60 in the 6 Hz (32 mA) seizure model, these compounds were also evaluated by applying a higher current intensity of 44 mA. […]

Series [6] concerns 6 Hz (32 mA) seizures in mice. Briefly: 6 Hz (32 mA) psychomotor seizure model. The format is in vivo. Particulars: Mus musculus, ip; for responders at 100 mg/kg: 100 mg/kg i.p., 0.5 h; for ED50: mice, pretreatment time 0.5 h, (95% confidence limits). The procedure, abridged: as §1
Where [7] appears, read: four mice, read-out: protection in 6 Hz (32 mA) screening.
Setting [8] is: read-out: 6 Hz (32 mA) screening: number of mice protected/number of mice tested (converted).

Consider two molecules from paper PMC9221546, “New Phenylglycinamide Derivatives with Hybrid Structure as Candidates for New Broad-Spectrum Anticonvulsants” (Cells, 2022).

Entries after “also recorded” stand apart in the source; their conditions may differ. Where two headings read alike, the source gives them in different places.

A word on the share remaining: it is what is left of the initial amount, in per cent. As a reminder, the inhibition is the relative decrease from the control value, in per cent. The ED50 is the midpoint of the dose-response relation.

T1 sequence (Q8NER1 whole entry): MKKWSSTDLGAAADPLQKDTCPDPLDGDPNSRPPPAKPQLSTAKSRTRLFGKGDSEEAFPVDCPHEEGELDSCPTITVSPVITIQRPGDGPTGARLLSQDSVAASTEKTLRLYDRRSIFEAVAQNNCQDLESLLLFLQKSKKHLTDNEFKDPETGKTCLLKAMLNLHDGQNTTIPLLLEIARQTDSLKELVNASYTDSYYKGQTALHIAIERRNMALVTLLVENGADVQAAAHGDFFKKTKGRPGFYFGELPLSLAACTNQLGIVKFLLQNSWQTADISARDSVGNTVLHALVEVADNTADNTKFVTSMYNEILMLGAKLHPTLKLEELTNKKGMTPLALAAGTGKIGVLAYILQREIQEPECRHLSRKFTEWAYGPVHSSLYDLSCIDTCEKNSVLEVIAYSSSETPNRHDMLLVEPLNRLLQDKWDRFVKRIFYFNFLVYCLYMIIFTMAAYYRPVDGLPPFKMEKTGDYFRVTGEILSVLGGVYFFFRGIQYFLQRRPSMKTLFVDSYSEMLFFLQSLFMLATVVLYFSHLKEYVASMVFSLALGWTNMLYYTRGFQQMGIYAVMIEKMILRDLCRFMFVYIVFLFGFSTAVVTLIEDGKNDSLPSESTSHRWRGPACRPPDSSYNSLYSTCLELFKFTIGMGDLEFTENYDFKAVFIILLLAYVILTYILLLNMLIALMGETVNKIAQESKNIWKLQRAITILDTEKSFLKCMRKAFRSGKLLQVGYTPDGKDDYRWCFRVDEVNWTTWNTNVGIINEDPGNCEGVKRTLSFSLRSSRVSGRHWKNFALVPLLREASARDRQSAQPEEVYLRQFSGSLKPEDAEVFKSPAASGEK
T2 sequence (Q13936 whole entry): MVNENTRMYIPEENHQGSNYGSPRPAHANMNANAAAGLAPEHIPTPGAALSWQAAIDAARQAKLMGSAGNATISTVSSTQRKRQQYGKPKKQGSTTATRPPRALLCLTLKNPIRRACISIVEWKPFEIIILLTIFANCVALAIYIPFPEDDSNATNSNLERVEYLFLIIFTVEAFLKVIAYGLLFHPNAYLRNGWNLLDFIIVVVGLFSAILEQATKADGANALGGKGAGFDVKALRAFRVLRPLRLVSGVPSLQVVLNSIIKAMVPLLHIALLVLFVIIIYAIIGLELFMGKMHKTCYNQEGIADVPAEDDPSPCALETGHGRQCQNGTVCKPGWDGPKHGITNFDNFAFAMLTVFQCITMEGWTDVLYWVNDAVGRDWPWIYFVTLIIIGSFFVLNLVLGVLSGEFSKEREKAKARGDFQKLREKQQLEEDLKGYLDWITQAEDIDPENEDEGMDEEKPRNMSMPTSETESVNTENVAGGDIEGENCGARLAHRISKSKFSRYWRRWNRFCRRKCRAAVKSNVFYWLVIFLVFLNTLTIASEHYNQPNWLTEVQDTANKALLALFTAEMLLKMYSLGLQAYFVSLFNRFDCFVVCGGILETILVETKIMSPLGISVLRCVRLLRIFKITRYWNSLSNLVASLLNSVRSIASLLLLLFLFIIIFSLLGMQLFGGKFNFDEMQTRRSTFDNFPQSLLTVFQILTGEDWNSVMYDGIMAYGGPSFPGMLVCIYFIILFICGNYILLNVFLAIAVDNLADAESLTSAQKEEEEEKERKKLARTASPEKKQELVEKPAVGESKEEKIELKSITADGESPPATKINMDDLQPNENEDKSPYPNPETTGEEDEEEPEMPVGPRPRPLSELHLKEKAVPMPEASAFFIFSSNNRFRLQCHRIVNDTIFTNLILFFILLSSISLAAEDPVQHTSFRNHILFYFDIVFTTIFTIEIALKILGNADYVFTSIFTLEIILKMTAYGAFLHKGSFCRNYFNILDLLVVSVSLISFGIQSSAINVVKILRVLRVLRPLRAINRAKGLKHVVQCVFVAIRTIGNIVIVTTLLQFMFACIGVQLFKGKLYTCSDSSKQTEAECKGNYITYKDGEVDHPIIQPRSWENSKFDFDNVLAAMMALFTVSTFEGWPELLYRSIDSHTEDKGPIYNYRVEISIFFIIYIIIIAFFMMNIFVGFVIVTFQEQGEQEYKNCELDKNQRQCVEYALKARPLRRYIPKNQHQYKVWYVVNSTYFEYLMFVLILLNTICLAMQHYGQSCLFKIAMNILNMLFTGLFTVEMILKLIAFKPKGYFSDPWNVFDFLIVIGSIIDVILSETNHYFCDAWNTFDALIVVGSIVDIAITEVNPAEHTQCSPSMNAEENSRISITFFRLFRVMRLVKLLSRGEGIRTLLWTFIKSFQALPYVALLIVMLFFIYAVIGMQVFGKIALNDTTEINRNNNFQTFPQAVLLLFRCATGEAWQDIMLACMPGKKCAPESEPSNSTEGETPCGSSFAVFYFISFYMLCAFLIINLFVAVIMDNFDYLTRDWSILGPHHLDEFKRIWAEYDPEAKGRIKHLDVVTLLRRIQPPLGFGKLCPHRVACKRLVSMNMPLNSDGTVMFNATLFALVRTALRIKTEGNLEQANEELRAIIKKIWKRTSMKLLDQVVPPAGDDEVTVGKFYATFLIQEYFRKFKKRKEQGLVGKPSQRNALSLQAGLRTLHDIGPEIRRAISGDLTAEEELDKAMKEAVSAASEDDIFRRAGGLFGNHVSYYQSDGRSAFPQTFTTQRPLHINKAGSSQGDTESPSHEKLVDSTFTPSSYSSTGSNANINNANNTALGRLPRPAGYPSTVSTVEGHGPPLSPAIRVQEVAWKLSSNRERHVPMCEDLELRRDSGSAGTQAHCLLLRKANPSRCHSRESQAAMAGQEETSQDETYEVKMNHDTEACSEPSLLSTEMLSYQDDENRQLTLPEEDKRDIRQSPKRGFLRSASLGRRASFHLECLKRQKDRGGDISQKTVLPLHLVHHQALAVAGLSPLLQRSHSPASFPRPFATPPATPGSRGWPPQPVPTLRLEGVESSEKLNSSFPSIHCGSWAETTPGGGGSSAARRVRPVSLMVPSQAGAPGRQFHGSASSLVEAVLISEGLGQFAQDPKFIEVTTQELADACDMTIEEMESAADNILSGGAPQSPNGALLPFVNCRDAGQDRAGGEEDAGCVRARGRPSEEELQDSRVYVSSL
T2 sequence (Q08289 whole entry partner): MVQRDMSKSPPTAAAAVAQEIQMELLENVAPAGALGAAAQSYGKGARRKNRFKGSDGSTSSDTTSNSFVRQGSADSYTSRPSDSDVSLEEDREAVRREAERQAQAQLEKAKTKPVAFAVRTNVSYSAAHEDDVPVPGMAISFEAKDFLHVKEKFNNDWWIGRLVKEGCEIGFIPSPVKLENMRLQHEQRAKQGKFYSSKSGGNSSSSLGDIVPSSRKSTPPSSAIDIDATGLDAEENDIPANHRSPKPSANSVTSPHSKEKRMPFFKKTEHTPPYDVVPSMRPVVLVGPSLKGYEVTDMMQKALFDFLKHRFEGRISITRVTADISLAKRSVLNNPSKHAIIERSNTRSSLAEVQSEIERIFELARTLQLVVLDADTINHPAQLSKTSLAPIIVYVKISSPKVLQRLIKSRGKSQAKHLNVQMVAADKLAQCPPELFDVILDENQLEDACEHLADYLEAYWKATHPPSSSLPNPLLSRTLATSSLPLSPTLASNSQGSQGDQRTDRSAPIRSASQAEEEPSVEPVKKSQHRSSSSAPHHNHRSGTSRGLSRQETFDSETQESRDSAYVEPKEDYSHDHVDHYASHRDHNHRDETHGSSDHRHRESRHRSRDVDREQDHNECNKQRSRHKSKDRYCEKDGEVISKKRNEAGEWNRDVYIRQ
T2 sequence (P54289 25-956 partner limits assumed): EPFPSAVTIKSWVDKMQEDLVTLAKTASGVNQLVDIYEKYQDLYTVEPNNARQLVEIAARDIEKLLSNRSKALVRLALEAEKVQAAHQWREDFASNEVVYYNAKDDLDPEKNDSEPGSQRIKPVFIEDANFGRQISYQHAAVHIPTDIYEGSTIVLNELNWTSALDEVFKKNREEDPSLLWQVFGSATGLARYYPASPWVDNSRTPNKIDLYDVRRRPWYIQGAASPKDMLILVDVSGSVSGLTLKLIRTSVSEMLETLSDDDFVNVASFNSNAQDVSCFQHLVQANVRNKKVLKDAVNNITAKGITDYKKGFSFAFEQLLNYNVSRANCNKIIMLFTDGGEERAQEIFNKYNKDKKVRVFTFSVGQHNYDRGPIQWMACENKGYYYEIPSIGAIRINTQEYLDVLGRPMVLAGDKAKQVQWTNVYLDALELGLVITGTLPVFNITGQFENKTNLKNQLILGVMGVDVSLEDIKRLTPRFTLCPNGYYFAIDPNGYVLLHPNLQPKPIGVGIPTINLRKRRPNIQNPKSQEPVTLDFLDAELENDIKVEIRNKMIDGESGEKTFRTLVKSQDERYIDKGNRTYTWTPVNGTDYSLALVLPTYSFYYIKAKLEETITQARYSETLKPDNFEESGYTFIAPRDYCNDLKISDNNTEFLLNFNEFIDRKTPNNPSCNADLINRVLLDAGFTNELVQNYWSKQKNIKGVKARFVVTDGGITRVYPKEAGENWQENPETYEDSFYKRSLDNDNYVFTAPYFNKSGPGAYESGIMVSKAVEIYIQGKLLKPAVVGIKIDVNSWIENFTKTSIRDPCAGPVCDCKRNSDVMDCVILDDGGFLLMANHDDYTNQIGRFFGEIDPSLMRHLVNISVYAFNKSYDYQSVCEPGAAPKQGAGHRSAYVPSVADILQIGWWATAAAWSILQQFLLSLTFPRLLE
T2 sequence (P54289 957-1103 partner limits assumed): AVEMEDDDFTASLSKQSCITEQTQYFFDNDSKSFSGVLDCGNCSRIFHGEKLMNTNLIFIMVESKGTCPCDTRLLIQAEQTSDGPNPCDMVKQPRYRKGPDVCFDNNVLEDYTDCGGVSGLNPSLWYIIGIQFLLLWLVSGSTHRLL

In series [1], `CC(=O)NC(C(=O)N1CCN(c2cccc(C(F)(F)F)c2)CC1)c1ccccc1` (centres unmarked) [Compound 53, N-(2-oxo-1-phenyl-2-(4-(3-(trifluoromethyl)phenyl)piperazin-1-yl)ethyl)acetamide] registered an amount remaining at 2 h of 95.6%. In addition, in series [1], the “Metabolic Pathway” value was “hydroxylation”. At TRPV1 (VR1) (h), the inhibition at 100 µM is 128%. Further, in series [2], the “scPTZ screening: number of mice protected/number of mice tested” value is 1/4. Besides, the “protection in scPTZ screening” value in series [2] was 25%. The “protection in MES screening” value in series [3] is on record as 75%. Moreover, the responders at 100 mg/kg was 75% in series [3], 100% in series [6] (setting [7]) and 100% in series [6] (setting [8]). Besides, the ED50 in series [3] amounted to 89.7 mg/kg; in series [5] it was 68 mg/kg; in series [6] it was 29.9 mg/kg. The inhibition at 10 µM in series [4] came out at 4%.

Consider `CC(=O)NC(C(=O)N1CCN(c2cccc(OC(F)(F)F)c2)CC1)c1ccccc1` (centres unmarked) [Compound 60, N-(2-oxo-1-phenyl-2-(4-(3-(trifluoromethoxy)phenyl)piperazin-1-yl)ethyl)acetamide], for which, in series [1], the amount remaining at 2 h turned out to be 88.8% and the “Metabolic Pathway” value is reported as “hydroxylation; also recorded: dehydrogenation”. For the same molecule, the inhibition at 100 µM on TRPV1 (VR1) (h) amounted to 110%. Further, in series [2], the “scPTZ screening: number of mice protected/number of mice tested” value was 1/4 and the “protection in scPTZ screening” value was determined as 25%. For the same molecule, in series [3], the “protection in MES screening” value was 75%, the responders at 100 mg/kg is 75% and the ED50 worked out at 73.6 mg/kg. For the same molecule, in series [4], the inhibition at 10 µM was found to be 7%. The ED50 in series [5] stood at 56.3 mg/kg. Further, in series [6] (setting [7]), the responders at 100 mg/kg came to 100%. Further, the responders at 100 mg/kg in series [6] (setting [8]) was 100%. The ED50 in series [6] came to 24.6 mg/kg.
